In PMC8279981, “A first-in-human, phase 1 study of the NEDD8 activating enzyme E1 inhibitor TAS4464 in patients with advanced solid tumors” (Investigational New Drugs, 2021):

What was measured:
[1] = system: advanced or metastatic solid tumors; test: Phase 1 study: clinical response (RECIST v1.1), PFS; format: in vivo, human
Excerpt: Secondary objectives included assessment of AEs, treatment-related AEs, objective response rate (ORR), disease control rate (DCR), progression-free survival (PFS), and PK, pharmacodynamic, and pharmacogenomic (PGx) parameters with TAS4464 administration. The National Cancer Institute Common Terminology Criteria for Adverse Events (NCI CTCAE) v4.03 [17] was used to assess the severity of AEs. The Medical Dictionary for Regulatory Activities (MedDRA) version 22.1 was used to classify AEs. RECIST v1.1 [16] was used to determine clinical response, and all computed tomography images were assessed by the physician at the study site after completion of the imaging procedure. The ORR was defined as the percentage of patients with the best overall response of complete response (CR) or partial response (PR). The DCR was the percentage of patients with a best overall response of CR, PR, stable disease (SD), or non-CR/non-progressive disease (PD). PFS was defined as the time from the date of enrollment until the date of investigator-assessed radiological disease progression or death due to any cause, whichever occurred first. The analysis populations included in the study are summarized in the Supplementary Appendix. DLTs were recorded by incidence and 95% confidence intervals (CI). Median PFS and 95% CIs were calculated using Kaplan–Meier methodology. Best overall response was tabulated, and the ORR and DCR with 95% CIs were calculated by dose level. PK parameters were evaluated using non-compartmental methods. For the pharmacodynamic parameter of cullin-NEDD8 in PBMC, summary statistics and a scatter plot of the percentage change from baseline were produced. Missing data were not imputed. […] SAS software v9.4 (SAS Institute Inc., Cary NC, USA) was used for all statistical processing.

[2] = system: cullin-NEDD8 complexes in PBMC; test: Cullin-NEDD8 protein in PBMC by ELISA; format: in vivo, human
Procedure: (§1) Assessment of pharmacodynamics included evaluation of cullin-NEDD8, p27^Kip1 protein expression, and cytokines in peripheral blood samples. Expression of cullin-NEDD8 protein in peripheral blood mononuclear cells (PBMC) was analyzed using an enzyme-linked immunosorbent assay (ELISA). For the weekly dosing cohorts, changes from baseline in cullin-NEDD8 complexes in the PBMC on Day 1 and Day 2 of Cycle 1 as measured by ELISA were evaluated. For the weekly dosing with lead-in period cohorts, changes from baseline in cullin-NEDD8 complexes on Day 2 were evaluated. Expression of p27^Kip1 protein (cyclin-dependent kinase inhibitor 1B), a substrate of CRL, was determined by immunohistochemistry (IHC). p27^Kip1 IHC was performed on biopsy tumor specimens collected at baseline and Day 2 of Cycle 1, and their staining intensities were assessed using H-Scoring, with the scores compared between baseline and Day 2 of Cycle 1. […]

[3] = system: p27^Kip1 protein expression; test: p27^Kip1 immunohistochemistry in biopsy tumor specimens; format: in vivo, human; details: Day 2 of Cycle 1, three patients; data not shown
Procedure: as §1

[4] = system: 10 cytokines in peripheral blood; test: Cytokines in peripheral blood (Luminex); format: in vivo, human
Procedure: as §1

[5] = system: NAE; details: compared with MLN4924; cited from earlier work
[6] = system: tumor cell lines; details: cited from earlier work
[7] = system: hematologic and solid tumor xenograft models; details: cited from earlier work
[8] = parameters: method as in unpublished data; details: TAS4464 combined with TNF-α; ref unpublished data; cited from earlier work
[9] = weekly dosing Level 1 (10 mg/m^2), n = 1
[10] = weekly dosing Level 2 (20 mg/m^2), n = 1
[11] = weekly dosing Level 3 (40 mg/m^2), n = 3
[12] = weekly dosing Level 4 (56 mg/m^2), n = 5
[13] = weekly dosing with lead-in Level 3 (20 → 40 mg/m^2), n = 3
[14] = weekly dosing with lead-in Level 4 (20 → 56 mg/m^2), n = 3
[15] = weekly dosing with lead-in Total, n = 6

CCOc1cccc(F)c1C#Cc1cn([C@@H]2O[C@H](CNS(N)(=O)=O)[C@@H](O)[C@H]2O)c2ncnc(N)c12 [TAS4464]
Disease control rate (CR + PR + SD + non-CR/non-PD) ([1]; Total, N = 16): 5 (31.3) n (%)
Not evaluable (best overall response) ([1]; Total, N = 16): 1 (6.3) n (%)
PD (best overall response) ([1]; Total, N = 16): 10 (62.5) n (%)
Response rate (CR + PR) ([1]; Total, N = 16): 0 n (%)
Disease control rate (CR + PR + SD + non-CR/non-PD) [1, 9]: 1 (100.0) n (%)
Not evaluable (best overall response) [1, 9]: 0 n (%)
PD (best overall response) [1, 9]: 0 n (%)
Response rate (CR + PR) [1, 9]: 0 n (%)
Disease control rate (CR + PR + SD + non-CR/non-PD) [1, 10]: 1 (100.0) n (%)
Not evaluable (best overall response) [1, 10]: 0 n (%)
PD (best overall response) [1, 10]: 0 n (%)
Response rate (CR + PR) [1, 10]: 0 n (%)
Disease control rate (CR + PR + SD + non-CR/non-PD) [1, 11]: 1 (33.3) n (%)
Not evaluable (best overall response) [1, 11]: 0 n (%)
PD (best overall response) [1, 11]: 2 (66.7) n (%)
Response rate (CR + PR) [1, 11]: 0 n (%)
Disease control rate (CR + PR + SD + non-CR/non-PD) [1, 12]: 2 (40.0) n (%)
Not evaluable (best overall response) [1, 12]: 0 n (%)
PD (best overall response) [1, 12]: 3 (60.0) n (%)
Response rate (CR + PR) [1, 12]: 0 n (%)
Disease control rate (CR + PR + SD + non-CR/non-PD) ([1]; weekly dosing Total, N = 10): 5 (50.0) n (%)
Not evaluable (best overall response) ([1]; weekly dosing Total, N = 10): 0 n (%)
PD (best overall response) ([1]; weekly dosing Total, N = 10): 5 (50.0) n (%)
Response rate (CR + PR) ([1]; weekly dosing Total, N = 10): 0 n (%)
best overall response ([1]; weekly dosing cohort): no patients showed a CR or PR
DCR ([1]; weekly dosing cohort, 10 patients, 95% CI 18.7–81.3): 50.0%
median PFS ([1]; weekly dosing cohort, 95% CI 1.0–7.0): 3.7 months
Disease control rate (CR + PR + SD + non-CR/non-PD) [1, 13]: 0 n (%)
Not evaluable (best overall response) [1, 13]: 0 n (%)
PD (best overall response) [1, 13]: 3 (100.0) n (%)
Response rate (CR + PR) [1, 13]: 0 n (%)
Disease control rate (CR + PR + SD + non-CR/non-PD) [1, 14]: 0 n (%)
Not evaluable (best overall response) [1, 14]: 1 (33.3) n (%)
PD (best overall response) [1, 14]: 2 (66.7) n (%)
Response rate (CR + PR) [1, 14]: 0 n (%)
Disease control rate (CR + PR + SD + non-CR/non-PD) [1, 15]: 0 n (%)
Not evaluable (best overall response) [1, 15]: 1 (16.7) n (%)
PD (best overall response) [1, 15]: 5 (83.3) n (%)
Response rate (CR + PR) [1, 15]: 0 n (%)
best overall response ([1]; weekly dosing with lead-in period cohort): no patients showed CR, PR, or SD
median PFS ([1]; weekly dosing with lead-in period cohort, 95% CI 0.5–2.9): 1.5 months
cullin-NEDD8 complex measurements in PBMC versus baseline ([2]; Day 1 of Cycle 1, no dose-dependency): lower than those at baseline in all patients
cullin-NEDD8 complex measurements in PBMC versus baseline ([2]; Day 2 of Cycle 1, dose dependency not observed): lower than those at baseline, with the exception of two patients
expression of p27^Kip1 in tumor specimens versus baseline [3]: almost unchanged or decreased
expression levels of the 10 cytokines in peripheral blood ([4]; five patients, weekly dosing with lead-in period cohort): no changes in the expression levels
peak expression of IL-1β, IFNγ, IL-12p40, IL-12p70, IL-17A, IL-1α and IL-2 versus baseline ([4]; one patient, weekly dosing with lead-in level 3, Day 3 of Cycle 1): more than four times higher than at baseline
inhibitory effects in enzyme assays [5]: greater inhibitory effects than MLN4924
inhibitory effects in cells ([6]; compared with MLN4924): greater inhibitory effects than MLN4924
time course of antiproliferative effects ([6]; dose- and time-dependent increase): plateauing after 24 h
antitumor effects ([7]; several hematologic and solid tumor xenograft models): promising antitumor effects
weight loss ([7]; xenograft models): without notable weight loss
abnormal liver function tests [8]: Abnormal liver function tests were also observed
